The values below come from patent US7300946B2, “N-(substituted arylmethyl)-4-(disubstituted methyl) piperidines and pyridines” (Bayer CropScience AG, priority 2002, dated 2007).

Structures are written as SMILES.

The experiment deals with tobacco budworm (Heliothis virescens [Fabricius]). The experiment can be described thus: surface-treated diet test against the tobacco budworm. The following applies: tobacco budworm second instar larvae, surface-treated diet, 0.25 millimoles of candidate insecticide on the surface of the diet, five-day exposure; for Percent Mortality: compared to total number of insects infested; for Percent Growth Inhibition: inhibition of insect weight relative to untreated controls. It counts as in vivo. The procedure:
Candidate insecticides were evaluated for activity against the tobacco budworm (Heliothis virescens [Fabricius]) in a surface-treated diet test.
In this test one mL of molten (65–70° C.) wheat germ-based artificial diet was pipetted into each well of a four by six (24 well) multi-well plate (ID# 430345-15.5 mm dia.×17.6 mm deep; Corning Costar Corp., One Alewife Center, Cambridge, Mass. 02140). The diet was allowed to cool to ambient temperature before treatment with candidate insecticide.
For a determination of insecticidal activity, solutions of the candidate insecticides were prepared for testing using a Packard 204DT Multiprobe® Robotic System (Packard Instrument Company, 800 Research Parkway, Meriden, Conn. 06450), in which the robot first diluted a standard 50 millimolar DMSO solution of candidate insecticide with a 1:1 water/acetone solution (V/V) in a ratio of 1:7 stock solution to water/acetone. The robot subsequently pipetted 40 microliters of the so-prepared solution onto the surface of the diet in each of three wells in the 24 multi-well plate. The process was repeated with solutions of seven other candidate insecticides. Once treated, the contents of the multi-well plate were allowed to dry, leaving 0.25 millimoles of candidate insecticide on the surface of the diet, or a concentration of 0.25 millimolar. Appropriate untreated controls containing only DMSO on the diet surface were also included in this test. […]
In each well of the test plate was placed one second instar tobacco budworm larvea, each weighing approximately five milligrams. After the larvae were placed in each well, the plate was sealed with clear polyfilm adhesive tape. The tape over each well was perforated to ensure an adequate air supply. The plates were then held in a growth chamber at 25° C. and 60% relative humidity for five days (light 14 hours/day).
After the five-day exposure period insecticidal activity for each rate of application of candidate insecticide was assessed as percent inhibition of insect weight relative to the weight of insects from untreated controls, and percent mortality when compared to the total number of insects infested.
The test compounds of formula I are identified by numbers that correspond to those in Table 1.
These tests were conducted with 0.25 millimoles of candidate insecticide on the surface of the diet.

Turning to `CCON=Cc1ccc(CN2CCC(C(OC(=O)Nc3cccc(C(F)(F)F)c3)c3ccc(C(F)(F)F)cc3)CC2)cc1` (centres unmarked) [Compound 204], the “Percent Mortality” value turned out to be 100% and the “Percent Growth Inhibition” value turned out to be 100%.
On to `CCON=Cc1ccc(CN2CCC(C(OC(=O)Nc3ccc(C(F)(F)F)cc3)c3ccc(C(F)(F)F)cc3)CC2)cc1` (centres unmarked) [Compound 205], for which the “Percent Mortality” value is 33% and the “Percent Growth Inhibition” value worked out at 100%.
Consider `CCON=Cc1ccc(CN2CCC(C(OC(=O)Nc3ccc(Cl)cc3C(F)(F)F)c3ccc(C(F)(F)F)cc3)CC2)cc1` (centres unmarked) [Compound 206], for which the “Percent Mortality” value was found to be 100% and the “Percent Growth Inhibition” value came out at 100%.
For `CCON=Cc1ccc(CN2CCC(C(OC(=O)Nc3ccc(Cl)c(C(F)(F)F)c3)c3ccc(C(F)(F)F)cc3)CC2)cc1` (centres unmarked) [Compound 207], the “Percent Mortality” value was 100% and the “Percent Growth Inhibition” value came out at 100%.
As to `CCON=Cc1ccc(CN2CCC(C(OC(=O)Nc3ccc(Br)cc3C(F)(F)F)c3ccc(C(F)(F)F)cc3)CC2)cc1` (centres unmarked) [Compound 208], the “Percent Mortality” value is on record as 100% and the “Percent Growth Inhibition” value was 100%.
On to `CCON=Cc1ccc(CN2CCC(C(OC(=O)Nc3ccc(OC)cc3)c3ccc(C(F)(F)F)cc3)CC2)cc1` (centres unmarked) [Compound 209], for which the “Percent Mortality” value was 100% and the “Percent Growth Inhibition” value was 100%.
`CCON=Cc1ccc(CN2CCC(C(OC(=O)Nc3cc(Cl)c(OC)cc3OC)c3ccc(C(F)(F)F)cc3)CC2)cc1` (centres unmarked) [Compound 210]: the “Percent Mortality” value was 0% and the “Percent Growth Inhibition” value worked out at 67%.
For the molecule `CCON=Cc1ccc(CN2CCC(C(OC(=O)Nc3ccc(OC(F)(F)F)cc3)c3ccc(C(F)(F)F)cc3)CC2)cc1` (centres unmarked) [Compound 211], the “Percent Mortality” value was 100% and the “Percent Growth Inhibition” value is on record as 100%.
As to `CCON=Cc1ccc(CN2CCC(C(OC(=O)Nc3ccc(-c4ccccc4)cc3)c3ccc(C(F)(F)F)cc3)CC2)cc1` (centres unmarked) [Compound 212], the “Percent Mortality” value was 100% and the “Percent Growth Inhibition” value is 100%.
As for `CCON=Cc1ccc(CN2CCC(C(OC(=O)Nc3cccc4c3CC=CC4)c3ccc(C(F)(F)F)cc3)CC2)cc1` (centres unmarked) [Compound 214], the “Percent Mortality” value is 0% and the “Percent Growth Inhibition” value was determined as 100%.
The matching figures for `O=C(Nc1ccc(Cl)cc1)OC(c1ccc(C(F)(F)F)cc1)C1CCN(Cc2ccc(Oc3ccccn3)cc2)CC1` (centres unmarked) [Compound 227, N-(4-chlorophenyl)({1-[(4-(2-pyridyloxy)phenyl)methyl](4-piperidyl)}[4-(trifluoromethyl)phenyl]methoxy)carboxamide]: 100% and 100%.
Regarding `O=C(Nc1cccc(Cl)c1Cl)OC(c1ccc(C(F)(F)F)cc1)C1CCN(Cc2ccc(Oc3ccccn3)cc2)CC1` (centres unmarked) [Compound 228], the “Percent Mortality” value was determined as 100% and the “Percent Growth Inhibition” value came out at 100%.
As to `O=C(Nc1ccc(Cl)c(Cl)c1)OC(c1ccc(C(F)(F)F)cc1)C1CCN(Cc2ccc(Oc3ccccn3)cc2)CC1` (centres unmarked) [Compound 230], the “Percent Mortality” value came to 100% and the “Percent Growth Inhibition” value is 100%.
Take `O=C(Nc1cc(Cl)ccc1Cl)OC(c1ccc(C(F)(F)F)cc1)C1CCN(Cc2ccc(Oc3ccccn3)cc2)CC1` (centres unmarked) [Compound 231]: the “Percent Mortality” value turned out to be 100% and the “Percent Growth Inhibition” value worked out at 100%.
With `O=C(Nc1cc(Cl)cc(Cl)c1)OC(c1ccc(C(F)(F)F)cc1)C1CCN(Cc2ccc(Oc3ccccn3)cc2)CC1` (centres unmarked) [Compound 232], the “Percent Mortality” value stood at 100% and the “Percent Growth Inhibition” value turned out to be 100%.
On to `O=C(Nc1c(Cl)cccc1Cl)OC(c1ccc(C(F)(F)F)cc1)C1CCN(Cc2ccc(Oc3ccccn3)cc2)CC1` (centres unmarked) [Compound 233], for which the “Percent Mortality” value is on record as 33% and the “Percent Growth Inhibition” value was determined as 100%.
The matching figures for `O=C(Nc1cc(Cl)c(Cl)cc1Cl)OC(c1ccc(C(F)(F)F)cc1)C1CCN(Cc2ccc(Oc3ccccn3)cc2)CC1` (centres unmarked) [Compound 234]: 100% and 100%.
Take `O=C(Nc1cccc(F)c1)OC(c1ccc(OC(F)(F)F)cc1)C1CCN(Cc2ccc(Oc3ccccn3)cc2)CC1` (centres unmarked) [Compound 235]: the “Percent Mortality” value is 100% and the “Percent Growth Inhibition” value is 100%.
In the case of `O=C(Nc1ccc(F)cc1)OC(c1ccc(OC(F)(F)F)cc1)C1CCN(Cc2ccc(Oc3ccccn3)cc2)CC1` (centres unmarked) [Compound 236], the “Percent Mortality” value was determined as 100% and the “Percent Growth Inhibition” value is reported as 100%.
Regarding `O=C(Nc1ccc(F)c(F)c1)OC(c1ccc(C(F)(F)F)cc1)C1CCN(Cc2ccc(Oc3ccccn3)cc2)CC1` (centres unmarked) [Compound 237], the “Percent Mortality” value was found to be 100% and the “Percent Growth Inhibition” value is listed as 100%.
For the molecule `O=C(Nc1ccc(F)c(F)c1)OC(c1ccc(OC(F)(F)F)cc1)C1CCN(Cc2ccc(Oc3ccccn3)cc2)CC1` (centres unmarked) [Compound 238], the “Percent Mortality” value is 100% and the “Percent Growth Inhibition” value is 100%.
Consider `O=C(Nc1cc(F)ccc1F)OC(c1ccc(C(F)(F)F)cc1)C1CCN(Cc2ccc(Oc3ccccn3)cc2)CC1` (centres unmarked) [Compound 239], for which the “Percent Mortality” value came to 100% and the “Percent Growth Inhibition” value was found to be 100%.
On to `O=C(Nc1cc(F)cc(F)c1)OC(c1ccc(C(F)(F)F)cc1)C1CCN(Cc2ccc(Oc3ccccn3)cc2)CC1` (centres unmarked) [Compound 240], for which the “Percent Mortality” value stood at 100% and the “Percent Growth Inhibition” value was 100%.
On to `O=C(Nc1c(F)cccc1F)OC(c1ccc(C(F)(F)F)cc1)C1CCN(Cc2ccc(Oc3ccccn3)cc2)CC1` (centres unmarked) [Compound 241], for which the “Percent Mortality” value was 100% and the “Percent Growth Inhibition” value worked out at 100%.
On to `O=C(Nc1ccc(F)c(F)c1F)OC(c1ccc(C(F)(F)F)cc1)C1CCN(Cc2ccc(Oc3ccccn3)cc2)CC1` (centres unmarked) [Compound 242], for which the “Percent Mortality” value was found to be 100% and the “Percent Growth Inhibition” value turned out to be 100%.
In the case of `O=C(Nc1c(F)c(F)c(F)c(F)c1F)OC(c1ccc(C(F)(F)F)cc1)C1CCN(Cc2ccc(Oc3ccccn3)cc2)CC1` (centres unmarked) [Compound 243], the “Percent Mortality” value is 100% and the “Percent Growth Inhibition” value worked out at 100%.
For `O=C(Nc1cccc(C(F)(F)F)c1)OC(c1ccc(C(F)(F)F)cc1)C1CCN(Cc2ccc(Oc3ccccn3)cc2)CC1` (centres unmarked) [Compound 244], the “Percent Mortality” value came to 100% and the “Percent Growth Inhibition” value is 100%.
Consider `O=C(Nc1ccc(C(F)(F)F)cc1)OC(c1ccc(C(F)(F)F)cc1)C1CCN(Cc2ccc(Oc3ccccn3)cc2)CC1` (centres unmarked) [Compound 245], for which the “Percent Mortality” value is reported as 100% and the “Percent Growth Inhibition” value stood at 100%.
`O=C(Nc1ccc(C(F)(F)F)cc1)OC(c1ccc(OC(F)(F)F)cc1)C1CCN(Cc2ccc(Oc3ccccn3)cc2)CC1` (centres unmarked) [Compound 246]: the “Percent Mortality” value worked out at 100% and the “Percent Growth Inhibition” value was found to be 100%.
For the molecule `O=C(Nc1ccc(Cl)c(C(F)(F)F)c1)OC(c1ccc(C(F)(F)F)cc1)C1CCN(Cc2ccc(Oc3ccccn3)cc2)CC1` (centres unmarked) [Compound 247], the “Percent Mortality” value is recorded as 100% and the “Percent Growth Inhibition” value worked out at 100%.
On to `O=C(Nc1cc(C(F)(F)F)cc(C(F)(F)F)c1)OC(c1ccc(C(F)(F)F)cc1)C1CCN(Cc2ccc(Oc3ccccn3)cc2)CC1` (centres unmarked) [Compound 248], for which the “Percent Mortality” value came out at 100% and the “Percent Growth Inhibition” value was found to be 100%.
